“Also recorded” adds a separate entry of the source. Read-outs that look alike come from different tables or passages of the source.
Experiments:
B*0702 = B*0702 (Homo sapiens, UniProt P01889); test: competition solid-phase radioimmunoassay on purified HLA molecule; type: binding
Protocol: (§1) Supertype analysis. Quantitative assays to measure the binding affinity of peptides to purified HLA B7-supertype molecules (B*0702, B*3501, B*5101, B*5301, B*5401) and B*0801 were based on the inhibition of binding of a radiolabeled standard peptide, and were performed as previously described (22, 35). Briefly, 1-10 nM of radiolabeled peptide was co-incubated at room temperature with 1 microM to 1 nM of purified MHC in the presence of 1-3 μM human beta2-microglobulin (Scripps Laboratories, San Diego, Calif.) and a cocktail of protease inhibitors. After a two-day incubation, binding of the radiolabeled peptide to the corresponding MHC class I molecule was determined by capturing MHC/peptide complexes on Greiner Lumitrac 600 microplates (Greiner Bio-one, Longwood, Fla.) coated with the W6/32 antibody, and measuring bound counts per minute (cpm) using the TopCount microscintillation counter (Packard Instrument Co.). […] Under the conditions utilized, where [label]<[MHC] and IC50≧[MHC], the measured IC50 values are reasonable approximations of the true Kd values.
Next, we assessed the actual binding avidity for HLA-B7 (HLA-B*0702). Two independent assays were used: binding stabilization assay on T2-B7 cells by flow cytometry (12) and a competitive solid-phase radioimmunoassay on immobilized purified HLA-B7 molecule (35).

B*0801 = B*0801 (Homo sapiens, UniProt P01889, A93T/A95T/D138N/E176V/E187T/K202T/Q94N/R180D/S35A/V36M/Y33D/Y91F); test: biochemical
[1] = tested on: RMA-B7 cells pulsed with the homologous hTRT peptide; test: peptide immunization of HLA-B7 Tg mice, 51Cr-release assay; type: in vivo; settings: 100 micrograms peptide + HBV helper peptide in IFA, s.c.
Protocol: FIG. 1. […] HLA-B7 Tg mice were vaccinated with 100 micrograms of individual hTRT peptide together with 120 micrograms of HBV helper peptide in IFA. Ten days after immunization, spleen lymphocytes were restimulated in vitro with peptide and fresh, irradiated syngeneic APC. Restimulations were performed on a weekly basis. A standard 4 hour ^51Cr-release assay was performed on day 5 after in vitro restimulation, using RMA-B7 cells pulsed with the homologous hTRT peptide as targets and an E:T ratio of 25:1. Results are expressed as the mean specific lysis plus or minus standard deviation of responder mice only, whose number is indicated in each panel. Tests were run in duplicate.
In vivo immunization procedures. Peptide immunization. HLA B7 transgenic mice (28) were injected s.c. at the base of the tail with 100 micro-grams of hTRT peptides along with 120 micro-grams of I-A^b MHC Class II helper peptide 128-140 of the hepatitis B virus core protein in incomplete Freunds' adjuvant as described previously (12). Long-term CTL lines were maintained in culture by weekly restimulation with irradiated, peptide-pulsed syngeneic spleen cells in RPMI-1640 medium containing 10% heat inactivated fetal bovine serum, 2 mM glutamine, 5×10^−5 M 2-Mercaptoethanol, 50 micro-grams/ml streptomycin, and 50 micro-grams/ml penicillin (complete medium) and supplemented with 40 IU/ml of recombinant human IL-2.
CTL assays. Both murine and human CTL were detected by the ^51Cr release assay performed as previously described (14). Briefly, HLA-B7^+ antigen presenting cells (RMA-B7 or T2-B7 cells) were labeled for 1 hr with 100 micro-Ci of Na2^51CrO4 (Perkin Elmer). Washed cells (5×10^3 per well) were mixed in 96-well plates in 100 micro-liters/well with each peptide (at 10 micro-grams/ml or lower concentration) and 100 micro-liters of the CTL effector cells (at various E:T ratio) in RPMI medium. The plates were incubated for 4-5 hrs at 37° C. (5% CO2). The supernatants were harvested and counted on a Wallac 1470 Wizard Gamma counter. The percent lysis was calculated as 100 (cpmexp−cpmspont)/(cpmmax−cpmspont).
In order to assign immunogenicity to each of the peptides and correlate this property with the binding characteristics and the scores of the predictive algorithms, we immunized HLA-B7 Tg mice (28). Ten to eleven days after immunization mice were sacrificed, the spleen harvested and splenocytes put in culture with LPS/Dextran activated APC, and tested in a 4 hour ^51Cr-release assay. As shown, only five out of seven peptides yielded a meaningful, specific CTL response even after a third cycle of in vitro restimulation (FIG. 1). All immunogenic peptides induced a response from the first in vitro restimulation and this response increased upon subsequent rounds of antigen restimulation. As noted the lysis of peptide-pulsed RMA-B7 target cells increased at each round of in vitro restimulation. No lysis occurred on RMA-B7 cells not pulsed with peptide. Thus, the in vivo results together with the actual measure of the avidity of HLA-B7 binding avidity distinguished two groups of 9mer hTRT peptides.

B*5401 = B*5401 (Homo sapiens, UniProt P01889, A329T/C349S/D138N/D201E/E176V/E187T/E204Q/E69G/I76V/K202T/L119W/R155S/R180L/S121T/S35A/S48A/V127L/V306I/V36M/Y140L); test: HLA-B7 supertype binding assay
Protocol: as §1
(§2) HLA molecules are highly polymorphic posing problems to the identification of peptides, which could be used to cover the totality of the human population. However, HLA alleles can be clustered into a relatively small number of groups termed supertypes (21). The HLA-B7 supertype includes ten alleles (22). Here, we decided to test the selected hTRT peptides for their ability to bind five out of ten members of the HLA-B7 supertype (B*3501, B*5101, B*5301, B*5401) and B*0801. The B*0801 allele shares binding features with B*0702, although is not officially part of the HLA-B7 supertype. This analysis had the purpose to further narrow the selection of putative HLA-B7 immunogens based on supertype binding (Table V).

B*3501 = B*3501 (Homo sapiens, UniProt P01889, A329T/A93T/A95T/C349S/D201E/D98Y/E176V/E187L/E204Q/E69T/I218V/K202T/L119I/Q94N/R155S/R180L/S121R/S35A/S48A/T118I/V127L/V306I/V36M/Y140S/Y91F); test: HLA-B7 supertype binding assay
Protocol: as §1, §2

B*5101 = B*5101 (Homo sapiens, UniProt P01889, A329T/A93T/A95T/C349S/D138N/D201E/D98Y/E187L/E204Q/E69T/G107R/I218V/K202T/L105A/L119W/N104I/Q94N/R106L/R155S/R180L/S101N/S121T/S35A/S48A/V306I/V36M/Y195H/Y91F); test: HLA-B7 supertype binding assay
Protocol: as §1, §2

B*5301 = B*5301 (Homo sapiens, UniProt P01889, A329T/A93T/A95T/C349S/D201E/D98Y/E176V/E187L/E204Q/E69T/G107R/I218V/K202T/L105A/L119I/N104I/Q94N/R106L/R155S/R180L/S101N/S121R/S35A/S48A/T118I/V127L/V306I/V36M/Y140S/Y91F); test: HLA-B7 supertype binding assay
Protocol: as §1, §2

## CSCC[C@H](NC(=O)[C@H](CC(N)=O)NC(=O)[C@H](CCCNC(=N)N)NC(=O)CNC(=O)[C@H](C)N)C(=O)N[C@@H](CCCNC(=N)N)C(=O)N[C@@H](CCCNC(=N)N)C(=O)N[C@@H](CCCCN)C(=O)N[C@@H](CC(C)C)C(=O)O [p966]
B*0702
  IC50: > 50000 nM
B*0702; read-out: HLA class I binding capacity (IC50 nM) B*0702, Table V, purified MHC, radiolabeled standard peptide
  IC50: > 50000 nM
B*0801
  IC50: > 50 µM
[1]
  immunogenicity in vivo, CTL response after peptide immunization (in words): non-immunogenic; also recorded: poor immunogenicity; also recorded: repeated negative results
B*5401
  IC50: 34.1 µM
B*3501
  IC50: > 50 µM
B*5101
  IC50: > 50 µM
B*5301
  IC50: > 50 µM
